From ChEMBL document CHEMBL3045751, “Structural Modification of the 6-Chloropyridyl Moiety in the Imidacloprid, Skeleton: Introduction of a Five-membered Heteroaromatic Ring and the Resulting Insecticidal Activity” (1993) come the findings set out here.

The test has as its system Nephotettix cincticeps. Kind of test: Insecticidal activity against Nephotettix cincticeps (green rice leafhopper) in compound treated germinated rice seedlings assessed as mortality measured after 5 days. The test is classed as functional.

Turning to `O=[N+]([O-])/C=C1\NCCN1Cc1ccc(Cl)nc1`, the LC90 came out at 0.32 ppm. Regarding `O=[N+]([O-])/C=C1\NCCN1Cc1cccnc1`, the LC90 is recorded as 8 ppm. For `Cn1cc(CN2CCN/C2=C\[N+](=O)[O-])cn1`, the LC90 is 1.6 ppm. For `Cc1cc(CN2CCN/C2=C\[N+](=O)[O-])on1` the value was 1.6 ppm; for `O=[N+]([O-])/C=C1\NCCN1Cc1ccc[nH]1`, 200 ppm; for `O=[N+]([O-])/C=C1\NCCN1Cc1ccccc1`, 200 ppm.

For `O=[N+]([O-])/C=C1\NCCN1Cc1cncs1`, the LC90 was found to be 8 ppm. For `O=[N+]([O-])/C=C1\NCCN1Cc1cnc(Cl)s1`, the LC90 was 0.32 ppm. For `O=[N+]([O-])/N=C1\NCCN1Cc1ccc(Cl)nc1` [IMIDACLOPRID] the value was 0.32 ppm; for `O=[N+]([O-])/C=C1\NCCN1Cc1cccs1`, 200 ppm.

`O=[N+]([O-])/C=C1\NCCN1Cc1cc(Br)no1`: the LC90 was 1.6 ppm. Next, `O=[N+]([O-])/C=C1\NCCN1Cc1ccco1`: 200 ppm.

As for `O=[N+]([O-])/N=C1\NCCN1Cc1cnc(Cl)s1` [IMIDACLOTHIZ], the LC90 is given as 0.32 ppm. Take `Cc1ncc(CN2CCN/C2=C\[N+](=O)[O-])s1`: the LC90 came to 1.6 ppm. Turning to `O=[N+]([O-])/C=C1\NCCN1Cc1csc(Cl)n1`, the LC90 came to 200 ppm. On to `O=[N+]([O-])/C=C1\NCCN1Cc1ccc(Br)s1`, for which the LC90 is reported as 40 ppm.
